# Measured values as given in PMC10514461, “Characterization of a novel inhibitor for the New Delhi metallo-β-lactamase-4: Implications for drug design and combating bacterial drug resistance” (The Journal of Biological Chemistry, 2023).
# Legend:
# NDM-1 [1] = assay type: biochemical; conditions: against the NDMs (NDM-1 and NDM-4)
# Procedure: The IC50 and Ki values were determined by the direct competition between nitrocefin substrate and inhibitors under appropriately controlled experiments. Different concentrations of inhibitor ranging from 0.001 to 500 μM, a fixed concentration of 12 nM of purified protein, and 20 μM of nitrocefin substrate were used in reaction. The rate of product formation was monitored based on the absorbance at 486 nm taken at 10 s intervals for 30 min. The relative change in absorbance was evaluated as percentage inhibition, and the IC50 was determined by fitting the data to a sigmoidal dose-response curve. The enzyme inhibition constant (Ki) was derived from initial-velocity measurements by nonlinear regression via competitive-inhibition enzyme kinetics using GraphPad Prism 9.
# [2] = system: Verona-integron-encoded MBL 2; conditions: against Verona-integron-encoded MBL 2; cited from earlier work
# NDM-4 (M154L) = biological target: T1, NDM-4 (M154L) (Klebsiella pneumoniae, UniProt C7C422, M154L); assay: Steady state kinetics of nitrocefin hydrolysis, NDM-4; assay type: biochemical; conditions: nitrocefin as substrate
# T1 construct: The electron density for the polypeptide chain was continuous from Gly 42 to Arg 270; polyhistidine (with TEV site) (N, cleaved yes); made in house; host or cells: Rosetta2(DE3) E. coli
# T1 sequence (C7C422 42-270 M154L): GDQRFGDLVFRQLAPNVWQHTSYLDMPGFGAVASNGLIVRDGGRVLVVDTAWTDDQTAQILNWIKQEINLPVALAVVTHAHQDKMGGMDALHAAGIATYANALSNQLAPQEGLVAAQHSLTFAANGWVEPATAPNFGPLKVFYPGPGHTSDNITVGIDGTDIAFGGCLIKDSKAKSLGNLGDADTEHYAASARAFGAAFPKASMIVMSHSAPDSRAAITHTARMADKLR
# Procedure: (§1) Nitrocefin (Cayman, CAS 41906-86-9) was used as the chromogenic substrate for all enzyme kinetic assays. The enzymatic activity of purified NDM-1 and NDM-4 was determined spectrophotometrically at room temperature in 1X PBS, pH 7. The rate of product formation was monitored based on the absorbance at 486 nm taken at 10 s intervals for 30 min. The KM and kcat values were determined from ten different concentrations of nitrocefin ranging from 0.01 μM to 250 μM with at least four independent initial-velocity measurements using 12 nM of each enzyme and fitted by nonlinear regression using Michaelis–Menten enzyme kinetics with GraphPad Prism 9 (https://www.graphpad.com/).
# NDM-1 [3] = biological target: NDM-1 (Klebsiella pneumoniae, UniProt C7C422); assay: Steady state kinetics of nitrocefin hydrolysis, NDM-1; assay type: biochemical; conditions: nitrocefin as substrate
# NDM-1 (Klebsiella pneumoniae, UniProt C7C422), sequence (C7C422 42-270 limits assumed): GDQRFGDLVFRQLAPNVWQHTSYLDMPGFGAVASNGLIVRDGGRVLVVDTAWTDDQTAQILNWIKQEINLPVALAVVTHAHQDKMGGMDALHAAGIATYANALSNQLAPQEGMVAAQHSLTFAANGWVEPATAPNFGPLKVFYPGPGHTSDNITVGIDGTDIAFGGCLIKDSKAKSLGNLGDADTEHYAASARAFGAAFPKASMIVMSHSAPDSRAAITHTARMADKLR
# Procedure: as §1
SMILES,potency over L-captopril (NDM-1 [1]),"enhanced inhibition activity over parent scaffold 1,2 hydroxy pyrithione [2]",kcat (NDM-4 (M154L); NDM-4),"Km (NDM-4 (M154L); NDM-4, 1X PBS pH 7, room temperature)",kcat (NDM-1 [3]; NDM-1),"Km (NDM-1 [3]; NDM-1, 1X PBS pH 7, room temperature)"
"O=C(O)c1cccc(=S)n1O [Compound 1, 1-hydroxypyridine-2(1H)-thione-6-carboxylic acid]",> 1600 fold,more than 10 fold,–,–,–,–
O=C(Cc1cccs1)N[C@@H]1C(=O)N2C(C(=O)O)=C(/C=C/c3ccc([N+](=O)[O-])cc3[N+](=O)[O-])CS[C@H]12 [Nitrocefin],–,–,70 ± 7 s⁻¹,9.4 ± 0.2 µM,86 ± 11 s⁻¹,10.9 ± 0.6 µM
